In brackets after ≈: the same amount, converted by molar mass. Several values for one entry are separate records, joined by “and”; a condition that tells them apart may be missing. Equal entries are not always repeated.
Key:
Type in all cases: functional
Candida [1] = experiment: 50% inhibitory activity against the Candida. species (40 clinical isolates) was determined at pH-7.2
Candida [2] = experiment: Inhibitory activity against Candida. species. (40 clinical isolates), determined at pH-7.2
Candida [3] = experiment: Resistance against all Candida. species (40 clinical isolates) at 256 micro g/mL (pH=5.8). Activity is expressed as R%.
Candida [4] = experiment: 90% inhibitory activity against the Candida. species (40 clinical isolates) was determined at pH-7.2
Candida albicans [5] = experiment: Inhibitory activity against Candida albicans (40 clinical isolates), determined at pH-5.8
Candida albicans [6] = experiment: Inhibitory activity against the Candida albicans (40 clinical isolates), determined at pH-5.8
Candida [7] = experiment: Inhibitory activity against Candida. species. (40 clinical isolates), determined at pH-5.8
Candida albicans [8] = experiment: Percent resistance against Candida albicans (40 clinical isolates) at 256 micro g/mL (pH=5.8), activity is expressed as R%.
Candida albicans [9] = experiment: Inhibitory activity against the Candida albicans (40 clinical isolates), determined at pH-7.2
Candida albicans [10] = experiment: 50% inhibitory activity against Candida albicans (40 clinical isolates) determined at pH-7.2
Candida [11] = experiment: Inhibitory activity against Candida. species (40 clinical isolates), determined at pH-5.8
Candida [12] = experiment: Percent resistance against all Candida. species (40 clinical isolates) at 256 micro g/mL (pH=7.2), activity is expressed as R%.
Candida albicans [13] = experiment: Inhibitory activity against Candida albicans (40 clinical isolates), determined at pH-7.2
Candida albicans [14] = experiment: Resistance against Candida. albicans (40 clinical isolates) at 256 ug/mL (pH=7.2), activity is expressed as R%.
Candida albicans [15] = experiment: 50% inhibitory activity against Candida albicans (40 clinical isolates) determined at pH-5.8
Oryctolagus cuniculus = experiment: Topical comparison with bifonazole in white male rabbits at 1% concentration of compound
Candida albicans [16] = experiment: The compound was tested for percent resistance against Candida. albicans (40 clinical isolates) at 256 micro g/mL (pH=7.2), activity is expressed as R%.
Candida [17] = experiment: 90% inhibitory activity against Candida. species (40 clinical isolates) determined at pH-7.2
[18] = Candida albicans, read-out: MIC50

| SMILES | MIC50 (Candida [1]) [µg/mL] | MIC (Candida [2]) [µg/mL] | R (Candida [3]) [%] | MIC90 (Candida [4]) [µg/mL] | MIC (Candida albicans [5]) [µg/mL] | MIC90 (Candida albicans [6]) [µg/mL] | MIC (Candida [7]) [µg/mL] | R (Candida albicans [8]) [%] | MIC90 (Candida albicans [9]) [µg/mL] | MIC50 (Candida albicans [10]) [µg/mL] | MIC50 (Candida albicans [10]; [18]) [µg/mL] | MIC50 (Candida [11]) [µg/mL] | MIC90 (Candida [11]) [µg/mL] | R (Candida [12]) [%] | MIC (Candida albicans [13]) [µg/mL] | R (Candida albicans [14]) [%] | MIC50 (Candida albicans [15]) [µg/mL] | Percentage of animals (Oryctolagus cuniculus) | R (Candida albicans [16]) [%] | MIC90 (Candida [17]) [µg/mL] |
| --- | --- | --- | --- | --- | --- | --- | --- | --- | --- | --- | --- | --- | --- | --- | --- | --- | --- | --- | --- | --- |
| Cc1ccc(C(c2c[nH]cc2-c2ccccc2)n2ccnc2)cc1 (configuration not stated) | 64 (≈ 204 µM) | 51.6 (≈ 165 µM) | 0 | 64 (≈ 204 µM) | 133 (≈ 425 µM) | 256 (≈ 817 µM) | 71 (≈ 227 µM) | 0 | 64 (≈ 204 µM) | 64 (≈ 204 µM) | 32 (≈ 102 µM) | 64 (≈ 204 µM) | 256 (≈ 817 µM) | 0 | 48.4 (≈ 154 µM) | 0 |  |  |  |  |
| Clc1ccc(C(c2c[nH]cc2-c2ccccc2)n2ccnc2)cc1 (configuration not stated) | 32 (≈ 95.9 µM) | 40 (≈ 120 µM) | 0 | 128 (≈ 383 µM) | 47.3 (≈ 142 µM) | 64 (≈ 192 µM) | 51.4 (≈ 154 µM) | 0 | 128 (≈ 383 µM) |  |  | 64 (≈ 192 µM) | 64 (≈ 192 µM) | 0 | 21.3 (≈ 63.8 µM) | 0 |  |  |  |  |
| Fc1ccc(C(c2c[nH]cc2-c2ccccc2)n2ccnc2)cc1 (configuration not stated) | 64 (≈ 202 µM) | 74.5 (≈ 235 µM) | 0 | 128 (≈ 403 µM) | 71.2 (≈ 224 µM) | 128 (≈ 403 µM) | 99.5 (≈ 314 µM) | 0 | 64 (≈ 202 µM) | 64 (≈ 202 µM) | 32 (≈ 101 µM) | 64 (≈ 202 µM) | 128 (≈ 403 µM) | 0 | 55.1 (≈ 174 µM) | 0 |  |  |  |  |
| c1ccc(-c2ccc(C(c3ccccc3)n3ccnc3)cc2)cc1 (configuration not stated) [BIFONAZOLE] | 4 (≈ 12.9 µM) | 4.5 (≈ 14.5 µM) | 0 | 16 (≈ 51.5 µM) | 3.72 (≈ 12 µM) | 16 (≈ 51.5 µM) | 7.5 (≈ 24.2 µM) | 0 | 16 (≈ 51.5 µM) |  | 4 (≈ 12.9 µM) | 8 (≈ 25.8 µM) | 8 (≈ 25.8 µM) | 0 | 4.1 (≈ 13.2 µM) |  | 4 (≈ 12.9 µM) | 3% and 6% and 10% | 0 |  |
| Clc1ccc(-c2c[nH]cc2C(c2ccc(Cl)c(Cl)c2)n2ccnc2)cc1 (configuration not stated) | 64 (≈ 159 µM) | 91.3 (≈ 227 µM) | 0 |  | 14.4 (≈ 35.8 µM) | 64 (≈ 159 µM) | 32.2 (≈ 80 µM) | 0 | 64 (≈ 159 µM) |  | 2 (≈ 4.97 µM) | 32 (≈ 79.5 µM) | 64 (≈ 159 µM) | 10 | 19.3 (≈ 48 µM) | 0 | 4 (≈ 9.93 µM) |  |  | 64 (≈ 159 µM) |
| Nc1ccc(C(c2c[nH]cc2-c2ccccc2)n2ccnc2)cc1 (configuration not stated) | 256 (≈ 814 µM) | > 331 | 80 | > 256 | 142 (≈ 453 µM) | 256 (≈ 814 µM) | > 327 | 0 | 128 (≈ 407 µM) |  | 128 (≈ 407 µM) | 256 (≈ 814 µM) | > 256 | 80 | 162 (≈ 515 µM) | 0 | 128 (≈ 407 µM) |  |  |  |
| Clc1ccc(C(c2c[nH]cc2-c2ccccc2)n2ccnc2)c(Cl)c1 (configuration not stated) | > 256 | > 256 | 100 |  | > 256 | > 256 | > 256 | 100 | > 256 |  | > 256 | > 256 | > 256 | 100 | > 256 | 100 | > 256 |  |  | > 256 |
| Clc1ccc(-c2c[nH]cc2C(c2ccccc2)n2ccnc2)c(Cl)c1 (configuration not stated) | 16 (≈ 43.4 µM) | 16.6 (≈ 45.1 µM) | 0 |  | 8.4 (≈ 22.8 µM) | 16 (≈ 43.4 µM) | 23.5 (≈ 63.8 µM) | 0 | 16 (≈ 43.4 µM) |  | 2 (≈ 5.43 µM) | 32 (≈ 86.9 µM) | 32 (≈ 86.9 µM) | 0 | 5.4 (≈ 14.7 µM) | 0 | 4 (≈ 10.9 µM) |  |  | 32 (≈ 86.9 µM) |
| Cc1ccc(C(c2c[nH]cc2-c2ccc(Cl)cc2)n2ccnc2)cc1 (configuration not stated) | 16 (≈ 46 µM) | 23.1 (≈ 66.4 µM) | 0 |  | 12.3 (≈ 35.4 µM) | 32 (≈ 92 µM) | 20.4 (≈ 58.6 µM) | 0 | 32 (≈ 92 µM) |  | 16 (≈ 46 µM) | 16 (≈ 46 µM) | 32 (≈ 92 µM) | 0 | 18.9 (≈ 54.3 µM) | 0 | 16 (≈ 46 µM) |  |  | 32 (≈ 92 µM) |
| Clc1ccc(-c2c[nH]cc2C(c2ccc(-c3ccccc3)cc2)n2ccnc2)cc1 (configuration not stated) | > 256 | > 352 | 0 |  | > 26.5 | 256 (≈ 625 µM) | 28.4 (≈ 69.3 µM) | 0 | 256 (≈ 625 µM) |  | 64 (≈ 156 µM) | 32 (≈ 78.1 µM) | 128 (≈ 312 µM) | 60 | > 150 | 40 | 8 (≈ 19.5 µM) |  |  | > 256 |
| Clc1ccc(-c2c[nH]cc2C(c2ccc(-n3cccc3)cc2)n2ccnc2)cc1Cl (configuration not stated) | > 256 | > 438 | 100 |  | > 264 | > 256 | > 256 | 40 | > 256 |  | 128 (≈ 295 µM) | > 256 | > 256 | 80 | > 289 | 50 | 128 (≈ 295 µM) |  |  | > 256 |
| O=[N+]([O-])c1ccc(C(c2c[nH]cc2-c2ccc(Cl)cc2)n2ccnc2)cc1 (configuration not stated) | 32 (≈ 84.5 µM) | > 91.8 | 60 |  | > 60.1 | 32 (≈ 84.5 µM) | > 355 | 0 | 64 (≈ 169 µM) |  | 32 (≈ 84.5 µM) | > 256 | > 256 | 10 | > 91.8 | 0 | 16 (≈ 42.2 µM) |  |  | 64 (≈ 169 µM) |
| Clc1ccc(-c2c[nH]cc2C(c2cccc3ccccc23)n2ccnc2)cc1 (configuration not stated) | 16 (≈ 41.7 µM) | 29 (≈ 75.5 µM) | 0 |  | 11.2 (≈ 29.2 µM) | 16 (≈ 41.7 µM) | 16.6 (≈ 43.2 µM) | 0 | 16 (≈ 41.7 µM) |  | 1 (≈ 2.6 µM) | 8 (≈ 20.8 µM) | 32 (≈ 83.4 µM) | 0 | 10.1 (≈ 26.3 µM) | 0 | 4 (≈ 10.4 µM) |  |  | 32 (≈ 83.4 µM) |
| Clc1ccc(-c2c[nH]cc2C(c2ccccc2)n2ccnc2)cc1Cl (configuration not stated) | 16 (≈ 43.4 µM) | 11.4 (≈ 31 µM) | 0 |  | 7.2 (≈ 19.6 µM) | 16 (≈ 43.4 µM) | 19.1 (≈ 51.9 µM) | 0 | 16 (≈ 43.4 µM) |  | 6 (≈ 16.3 µM) | 16 (≈ 43.4 µM) | 32 (≈ 86.9 µM) | 0 | > 10.9 | 0 | 8 (≈ 21.7 µM) |  |  | 16 (≈ 43.4 µM) |
| O=[N+]([O-])c1ccc(C(c2c[nH]cc2-c2ccccc2)n2ccnc2)cc1 (configuration not stated) | 256 (≈ 743 µM) | > 192 | 0 | 256 (≈ 743 µM) | 56.7 (≈ 165 µM) | 128 (≈ 372 µM) | 182 (≈ 529 µM) | 0 | 64 (≈ 186 µM) |  | 8 (≈ 23.2 µM) | 128 (≈ 372 µM) | > 256 | 20 | 5.18 (≈ 15 µM) | 0 | 8 (≈ 23.2 µM) |  |  |  |
| Clc1ccc(-c2c[nH]cc2C(c2ccc(Cl)cc2Cl)n2ccnc2)c(Cl)c1 (configuration not stated) | 256 (≈ 586 µM) | 101 (≈ 231 µM) | 0 |  | 7.4 (≈ 16.9 µM) | 16 (≈ 36.6 µM) | 23.4 (≈ 53.5 µM) | 0 | 16 (≈ 36.6 µM) |  | 8 (≈ 18.3 µM) | 32 (≈ 73.2 µM) | 32 (≈ 73.2 µM) | 0 | 20.6 (≈ 47.1 µM) | 0 | 2 (≈ 4.58 µM) |  |  | 256 (≈ 586 µM) |
| Clc1ccc(C(c2c[nH]cc2-c2ccccc2Cl)n2ccnc2)cc1Cl (configuration not stated) | 32 (≈ 79.5 µM) | 36.2 (≈ 89.9 µM) | 0 |  | 13.8 (≈ 34.3 µM) | 32 (≈ 79.5 µM) | 24.8 (≈ 61.6 µM) | 0 | 32 (≈ 79.5 µM) |  | 16 (≈ 39.7 µM) | 32 (≈ 79.5 µM) | 32 (≈ 79.5 µM) | 0 | 12.7 (≈ 31.5 µM) | 0 | 8 (≈ 19.9 µM) |  |  | 64 (≈ 159 µM) |
| Fc1ccc(C(c2c[nH]cc2-c2ccc(Cl)cc2)n2ccnc2)cc1 (configuration not stated) | 32 (≈ 91 µM) | 31.8 (≈ 90.4 µM) | 0 |  | 15.4 (≈ 43.8 µM) | 64 (≈ 182 µM) | 26.6 (≈ 75.6 µM) | 0 | 32 (≈ 91 µM) |  | 16 (≈ 45.5 µM) | 32 (≈ 91 µM) | 32 (≈ 91 µM) | 0 | 19.2 (≈ 54.6 µM) | 0 | 32 (≈ 91 µM) |  |  | 64 (≈ 182 µM) |

— ChEMBL document CHEMBL1128323, “Antifungal agents. 9. 3-Aryl-4-[alpha-(1H-imidazol-1-yl)arylmethyl]pyrroles: a new class of potent anti-Candida agents” (1995)
